From patent publication US20240425457A1, “COMPOSITIONS AND METHODS FOR SUPPRESSING AND/OR TREATING METABOLIC DISEASES AND/OR A CLINICAL CONDITION THEREOF” (CK Biotech Inc., priority 2018, published 2024)
“Also recorded” adds a separate entry of the source. Read-outs that look alike come from different tables or passages of the source. Values belong to the molecule of their own block, whether it stands above or below them.

Columns and labels:
CXXC5-DVL interaction [1] = biological target: T1, CXXC5-DVL interaction (Homo sapiens, UniProt O14640); test: in vitro CXXC5-DVL PPI inhibition screening assay (FITC-tagged PTD-DBMP on DVL-PDZ, fluorescence); assay type: binding; details: for inhibition at 30 µM: read-out: CXXC5-DVL inhibitory activity (%)
T1 sequence (O14640 251-323 limits assumed): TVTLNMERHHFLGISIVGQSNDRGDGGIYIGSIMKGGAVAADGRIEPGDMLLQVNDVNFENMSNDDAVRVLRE
Procedure: Screening for compounds that inhibit the CXXC5-DVL interaction. […] CELL. DEATH. DIFFER. […] After the addition of 10 μM FITC-tagged PTD-DBMP to each well, each compound in the chemical library or control (DMSO) was treated to the well at a final concentration of 30 μM. The fluorescence intensity was measured using a Fluorstar Optima microplate reader (BGM Lab Technologie, Ortenberg, Germany) and normalized as follows: “(‘compounds-treated group’−‘blank’)/(‘DMSO-treated control’−‘blank’)*100”.

MCD-induced NASH mice = test: MCD diet-induced NASH mice; assay type: in vivo; details: MCD diet 7 weeks, then 25 mg/kg daily oral gavage 3 weeks
Procedure: NASH study. Eight-week-old wild-type male C57BL/6N mice (KOATECH, Seoul, Korea) were fed on the methionine-choline deficient (MCD) diet for 7 weeks, followed by treatment with vehicle, A3334, A3051, or I3O of (25 mg kg^−1) sitagliptin (25 mg kg^−1) for another 3 weeks via daily oral gavage.
Collagen staining. 4 µm-liver tissues sections were stained using two common collagen staining methods. For Masson's trichrome staining, slides were fixed in Bouin's solution for 1 h. After incubation in Weigert's iron hematoxylin solution for 10 min, the slides were stained with Biebrich Scarlet-Acid Fuchsin and Aniline blue for 5 min. The collagen fibers were stained blue and the nuclei were stained black. For picrosirius red staining, sections were stained with Weigert's solution for 8 min and picrosirius red for 1 h. The collagen fibers were stained red with blue nuclei.

Wnt/β-catenin signaling = Wnt/β-catenin signaling (TOPFlash) reporter luciferase assay in HEK293-TOP cells; assay type: cell-based
Procedure: Luciferase reporter assay. HEK293-TOP cells were seeded in 24-well plates. Cells were treated with A3334 at a concentration of 1, 5, and 10 μM for 24 h. Total cell lysates were extracted with 35 μl of 5× Reporter Lysis Buffer per well according to the manufacturer's instructions (Promega). A total of 35 μl of luciferin was added and luciferase activity was measured using a Fluorstar Optima microplate reader.
Wnt/β-catenin signaling reporter luciferase assay. HEK293-TOP cells were seeded were seeded in 96-well plates at a density of 2.5×10^4 cells per well. Cells were treated with individual chemicals at a concentration of 1, 5, 10 µM for 24 h. Total cell lysates were extracted with 25 µl of 5× Reporter Lysis Buffer per well according to the manufacturer's instruction (Promega, Madison, WI). Luciferin (25 µl) was added and luciferase activity was measured using FLUOSTAR (BMG labtech, Offenburg, Germany).

HFD-induced obese mice = test: HFD-induced obese mice, oral administration during 16 weeks of HFD; assay type: in vivo; details: HFD 16 weeks, 25 mpk oral
Procedure: Anti-obesity effects of […], a small molecule […] inhibitor. Referring now to FIG. 34, C57BL/6N mice were fed HFD for 16 weeks with or without oral administration of 25 mpk […] or Orlistat. Orlistat is an anti-obesity drug that is thought to act by limiting the absorption of fats from the diet (e.g., a lipase inhibitor). […] Referring now to FIG. 35, The C57BL/6N mice were grown with HFD for 16 weeks with or without oral administration of 25 mpk of […], […], and I3O. […] The increase in adipocyte cell sizes and enhancement of inflammation (evaluated by crown like structures; blue; FIG. 35B) were suppressed by treatment with […] in the HFD mice.

HFD-fed mice = test: HFD-induced obesity/diabetes mice, 5-day oral courses at weeks 8/9 and 12; assay type: in vivo; details: HFD mice; for fasting glucose level / persistence of fasting glucose control after end of treatment: p.o. daily 5 days at weeks 8/9 and 12; for fasting glucose level: A3334, A3051, I3O 25, sitagliptin 50, metformin 100 mg/kg; for levels of GTT/ITT, total cholesterol, fasting glucose, triglyceride, FFAs in serum: A3334 25, metformin 100, sitagliptin 50 mpk (FIG. 38B-38F); for persistence of fasting glucose control after end of treatment: A3334 25, sitagliptin 50, metformin 100 mg/kg
Excerpt: Animals. The generation of Cxxc5^−/− mice has been described previously. Cxxc5 heterozygous mice were intercrossed for four generations to obtain littermate wild-type and Cxxc5^−/− mice and were maintained on a C57BL/6 background. Six-week-old Cxxc5^+/+ and Cxxc5^−/− mice were fed HFD for 8 weeks. Wild-type male C57BL/6 mice (KOATECH, Seoul, Korea) were fed HFD consisting of 60% calories from fat (Research Diet, D12492) for 8 weeks. To validate that the insulin resistance mouse model was successfully established, fasting glucose levels were assessed with a One Touch Ultra glucometer (LifeScan). Subsequently, each HFD-fed mouse with a fasting glucose level higher than 16.7 mmol/L was orally administered A3334 (25 mg kg^−1), sitagliptin (50 mg kg^−1), or metformin (100 mg kg^−1) each day for 5 days at weeks 8 and 12. After the removal of the drugs, mice were maintained for 3 weeks on the HFD. To monitor pancreas regeneration, six-week-old Cxxc5^+/+ and Cxxc5^−/− mice were fed an HFD as above. After dietary treatment for 4 weeks, the mice were intraperitoneally injected with STZ (50 mg/kg/d) for 1 week and the control group were injected with saline. After 2 weeks, Cxxc5^+/+ mice were administered A3334 (25 mg kg^−1) and sitagliptin (50 mg kg^−1) per day by oral gavage for 4 weeks. For GTT or ITT, mice were injected with D-glucose (1.5 g/kg body weight) after overnight starvation or human insulin (0.75 units/kg body weight) after 4 h starvation, respectively. Tail blood was drawn at 0, 15, 30, 60, 120, 180 min intervals and blood glucose level was measured with a One Touch Ultra glucometer. All mice were maintained under temperature-controlled and light-controlled (standard 12 h light/dark cycle) conditions and provided with food and water ad libitum. All protocols were reviewed and approved by the Institutional Review Board of Severance Hospital, Yonsei University College of Medicine (09-013).
Blood chemistry. Total blood of mice was collected by cardiac puncture after fasting. The blood was allowed to clot for 30 min and was then centrifuged for 10 min at 1,000×g to obtain supernatant to measure metabolic parameters. ELISA assay kits were used to assess serum insulin (Millipore), serum FFA (Cayman Chemical), serum adiponectin (ABclonal). The insulin function test was evaluated by HOMA-IR and was calculated as fasting plasma glucose (m mol/l)×fasting serum insulin (mU/l)/22.5. Serum chemistry variables included total cholesterol, HDL-cholesterol, glucose, TG, ALT, AST, ALP, Ca, and Mg concentration. The calibration of serum parameters was performed using the quality control card supplied with the FUJI DRI-CHEM slides whenever slides from a new lot were used. […]
Hematoxylin and eosin (H&E) staining. Dissected tissues were fixed in 4% neutral paraformaldehyde and embedded in paraffin. The paraffin sections were cut at a thickness of 4 μm and subjected to H&E staining. The adipocyte cell size was measured in 20 randomly chosen microscopic areas from 3 independent animals using a Nikon bright-field optical microscope (Nikon TE-2000U). The average adipocyte size was determined using Image J software. […]
Metabolic monitoring and body composition. Metabolic performance (energy intake and energy expenditure) was studied using a PHENOMASTER automated combined indirect calorimetry system (TSE system GmBH). The mice were first acclimated for 24 h in a metabolic chamber and were provided with food and water. They were then subsequently evaluated for 3 days to measure oxygen consumption (VO2), carbon dioxide production (VCO2), ambulatory counts, and respiratory exchange ratio. An LF50 body composition analyzer (Bruker) was used to determine body composition (lean body mass and total body fat) of the mice. The temperature for these studies remained at 22° C., with a 12 h light/dark cycle. Standard in-house software was used for energy expenditure.
Quantitative real-time polymerase chain reaction (PCR). […]

CXXC5-DVL interaction [2] = biological target: T1, CXXC5-DVL interaction; test: Dvl-CXXC5 in vitro binding assay, (PTD-DBMP)-(PZD-DVL), concentration dependent; details: FIG. 33A-33C; unit inferred; read-out: IC50, in vitro (PTD-DBMP)-(PZD-DVL) binding analyses

SMILES: COc1ccc(C)cc1/N=N/c1ccc(O)c2nc(/C=N/O)ccc12 [Compound 1]
- inhibition at 30 µM (CXXC5-DVL interaction [1]; 30 μM): 85.2%

SMILES: COc1ccc(C2CC(C(F)(F)F)n3ncc(C(=O)O)c3N2)cc1OC (stereo not shown) [Compound 2]
- inhibition at 30 µM (CXXC5-DVL interaction [1]; 30 μM): 90.6%

SMILES: Cc1cc(C)c2c(O)nc(SCC(=O)c3ccc(O)c(O)c3)nc2n1 [Compound 3]
- inhibition at 30 µM (CXXC5-DVL interaction [1]; 30 μM): 88.2%

SMILES: COC(=O)C1=C(C)N/C(=C/c2cc(C)n(-c3ccccc3F)c2C)C1=O [Compound 4]
- inhibition at 30 µM (CXXC5-DVL interaction [1]; 30 μM): 87.6%

SMILES: O=C(O)C1Sc2[nH]c(=O)sc2C2c3cc(Br)cc(Br)c3OC(=O)C12 (stereo not shown) [Compound 5]
- inhibition at 30 µM (CXXC5-DVL interaction [1]; 30 μM): 90.5%

SMILES: CCN(CC)S(=O)(=O)c1ccc(OC)c(Nc2cc(-c3ccccc3)nc(C)n2)c1 [Compound 6]
- inhibition at 30 µM (CXXC5-DVL interaction [1]; 30 μM): 58.2%

SMILES: CN1CCc2cc(O)cc3c2[C@H]1Cc1ccc(O)c(O)c1-3 [Compound 9]
- inhibition at 30 µM (CXXC5-DVL interaction [1]; 30 μM): 89.4%

SMILES: NC(Cc1cc(O)c(O)cc1O)C(=O)O (stereo not shown) [Compound 10]
- inhibition at 30 µM (CXXC5-DVL interaction [1]): 90.3%

SMILES: O=C1Nc2ccccc2/C1=C1/Nc2ccccc2/C1=N\O [Compound I3O, Indirubin-3′-oxime, reference compound]
- hepatosteatosis (H&E) (MCD-induced NASH mice): also reduced hepatosteatosis, but revealed only marginal effects compared to A3334
- Wnt/β-catenin (TOPFlash) reporter activity (Wnt/β-catenin signaling): showed effectiveness in the activation of Wnt/β-catenin pathway
- inhibition of CXXC5-DVL interaction (in words) (CXXC5-DVL interaction [1]): identified as initial hits
- inhibition at 30 µM (CXXC5-DVL interaction [1]; 30 μM): 89%
- inhibition of CXXC5-DVL interaction (in words) (CXXC5-DVL interaction [1]; listed as #12): repeatedly identified as CXXC5-DVL inhibitors
- adipocyte cell size and inflammation (crown like structures) (HFD-induced obese mice): showed reduction in adipocyte size and anti-inflammatory effects, but those effects were lower when compared to that of the A3334 treatment
- fasting glucose level (HFD-fed mice): also reduced fasting glucose. However, effects of A3051 and I3O is similar to or little bit weaker than SITA
- IC50 (CXXC5-DVL interaction [2]): 98.9 nM

SMILES: CN(C)C(=N)N=C(N)N [metformin, reference compound]
- serum ALT, AST, FFA (and TG) (HFD-fed mice): increased by metformin
- levels of GTT/ITT, total cholesterol, fasting glucose, triglyceride, FFAs in serum (HFD-fed mice): weaker than those of A3333
- persistence of fasting glucose control after end of treatment (HFD-fed mice): this prolonged effect was not shown; also recorded: showed an increased fasting glucose level after their second application
- fasting glucose level (HFD-fed mice): reduced similarly by treatment with all of these compounds at initial applications

SMILES: N[C@@H](CC(=O)N1CCn2c(nnc2C(F)(F)F)C1)Cc1cc(F)c(F)cc1F [sitagliptin, reference compound]
- hepatosteatosis (H&E) (MCD-induced NASH mice): also reduced hepatosteatosis, but revealed only marginal effects compared to A3334
- mRNA of M1 and M2 macrophage marker genes in epiWAT (HFD-fed mice): did not significantly change the expression of inflammation or the Wnt/β-catenin signaling target genes
- serum ALT, AST, FFA (and TG) (HFD-fed mice): weakly reduced by SITA even at a higher concentration
- levels of GTT/ITT, total cholesterol, fasting glucose, triglyceride, FFAs in serum (HFD-fed mice): weaker than those of A3333
- hepatic steatosis (lipid droplets, fatty liver, hepatic TG) (HFD-fed mice; H&E, Oil Red O): exhibited only a marginal effect
- Wnt/β-catenin target genes and lipogenesis/inflammation genes in white adipose tissue (HFD-fed mice; mRNA): did not significantly change the expression of inflammation or the Wnt/β-catenin signaling target genes
- lipogenesis and gluconeogenesis genes in liver (HFD-fed mice; mRNA): reduced by both A3334 and SITA, but A3334 showed better effectiveness
- persistence of fasting glucose control after end of treatment (HFD-fed mice): this prolonged effect was not shown; also recorded: showed an increased fasting glucose level after their second application
- fasting glucose level (HFD-fed mice): reduced similarly by treatment with all of these compounds at initial applications

Second part, the molecule after the results:

- inhibition at 30 µM (CXXC5-DVL interaction [1]; 30 μM): 90.9%
SMILES: COc1ccc(C2CC(=O)C3=C(C2)Nc2onc(C)c2C3c2ccc(O)c(O)c2)cc1OC (stereo not shown) [Compound 7]

- inhibition at 30 µM (CXXC5-DVL interaction [1]; 30 μM): 90%
SMILES: O=c1cc(O)cc(/C=C/c2ccc(O)c(O)c2)o1 [Compound 11]

- inhibition at 30 µM (CXXC5-DVL interaction [1]; 30 μM): 85.2%
SMILES: O=c1c(O)c(-c2cc(O)c(O)c(O)c2)oc2cc(O)cc(O)c12 [Compound 13]

- inhibition at 30 µM (CXXC5-DVL interaction [1]; 30 μM): 85.2%
SMILES: CC(N)(Cc1ccc(O)c(O)c1)C(=O)O (stereo not shown) [Compound 14]

- inhibition at 30 µM (CXXC5-DVL interaction [1]; 30 μM): 85.4%
SMILES: O=c1c(O)c(-c2ccc(O)cc2O)oc2cc(O)cc(O)c12 [Compound 15]

- inhibition at 30 µM (CXXC5-DVL interaction [1]): 87.9%
SMILES: CN(C)c1ccc(O)c2c1C[C@H]1C[C@H]3[C@H](N(C)C)C(O)=C(C(N)=O)C(=O)[C@@]3(O)C(O)=C1C2=O [Compound 16]

- inhibition at 30 µM (CXXC5-DVL interaction [1]; 30 μM): 85.2%
SMILES: Oc1cc(O)cc(/C=C/c2ccc(O)c(O)c2)c1 [Compound 17]

- inhibition at 30 µM (CXXC5-DVL interaction [1]; 30 μM): 86.8%
SMILES: O=C(OCCN1CCOCC1)C1(c2ccccc2)CCCCC1 [Compound 18]
